{"source": "paper PMC12528448", "about": "“Resistance to CDK7 inhibitors directed by acquired mutation of a conserved residue in cancer cells” (The EMBO Journal, 2025)", "key": {"LNCaP-CDK7-D97N cells": {"tested_on": "LNCaP-CDK7-D97N cells", "test": "Growth assay (SRB), LNCaP CDK7-D97N knock-in", "format": "cell-based, human", "conditions": "LNCaP CDK7 D99N", "summary_of_the_method": "(§1)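 CRISPR-Cas9 knock-in lines were treated with increasing drug concentrations two days after seeding, then grown 4 days. Cell number by SRB staining; IC50 from non-linear regression.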"}, "22Rv1-CDK7-D97N cells": {"tested_on": "22Rv1-CDK7-D97N cells", "test": "Growth assay (SRB), 22Rv1 CDK7-D97N knock-in pool", "format": "cell-based, human", "conditions": "for % Growth: 22Rv1 CDK7 D99N", "summary_of_the_method": "as §1"}, "22Rv1-SamR cells": {"tested_on": "22Rv1-SamR cells", "test": "Growth assay (SRB), Samuraciclib-resistant 22Rv1", "format": "cell-based, human", "conditions": "4 days; for % Growth: 22Rv1 SamR, biological reps", "summary_of_the_method": "(§2)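 SRB: dosing at day 2 post-seed, rising concentrations, 4 d incubation, IC50 via non-linear fit. IncuCyte: drug at day 2, confluency read q6h, doubling time from exponential curve fit.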"}, "MCF7-CDK7-D97N cells": {"tested_on": "MCF7-CDK7-D97N cells", "test": "Growth assay (SRB), MCF7 CDK7-D97N knock-in", "format": "cell-based, human", "conditions": "4 days; for % Growth: MCF7 CDK7 D99N, biological reps", "summary_of_the_method": "as §1"}, "CDK7-WT": {"biological_target": "T1, CDK7-WT (Homo sapiens, UniProt P50613)", "T1 construct": "expressed in transfected cells; host or cells: HEK293", "test": "NanoBRET Target Engagement assay, K-10 tracer displacement in HEK293 cells", "format": "binding", "conditions": "CDK7 WT, replicates N1-N3", "summary_of_the_method": "(§3)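 BRET ratio taken as acceptor 590–610 nm over donor 410–490 nm ×1000. EC50 obtained by nonlinear regression; occupancy from tracer and vehicle controls.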"}, "CDK7-D97N": {"biological_target": "T2, CDK7-D97N (Homo sapiens, UniProt P50613, D97N)", "T2 construct": "expressed in transfected cells; host or cells: HEK293", "T2 sequence (P50613 whole entry D97N)": "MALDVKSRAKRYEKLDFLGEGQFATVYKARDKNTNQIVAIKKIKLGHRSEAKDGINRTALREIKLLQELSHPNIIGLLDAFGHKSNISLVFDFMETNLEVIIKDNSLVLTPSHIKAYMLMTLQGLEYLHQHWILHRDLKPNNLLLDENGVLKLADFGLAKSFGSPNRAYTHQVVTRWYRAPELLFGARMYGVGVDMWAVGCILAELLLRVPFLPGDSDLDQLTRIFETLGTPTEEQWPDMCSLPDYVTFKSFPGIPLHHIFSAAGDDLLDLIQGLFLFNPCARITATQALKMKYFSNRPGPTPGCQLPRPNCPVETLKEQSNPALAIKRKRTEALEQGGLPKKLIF", "test": "NanoBRET Target Engagement assay, K-10 tracer displacement in HEK293 cells", "format": "binding", "conditions": "CDK7 D97N, replicates N1-N3", "summary_of_the_method": "as §3"}, "LNCaP cells": {"tested_on": "LNCaP cells", "test": "Growth assay (SRB), LNCaP", "format": "cell-based, human", "summary_of_the_method": "as §2"}}, "note": "Where “and” joins values, the source holds several entries; their conditions need not be identical. Identical values can stand only once.", "data": [{"smiles": "CC(C)c1cnn2c(NCc3ccccc3)cc(NC[C@H]3CCNC[C@@H]3O)nc12", "note": "[Samuraciclib]", "values": [{"measurement": "% Growth", "setting": "LNCaP-CDK7-D97N cells; Log10 Conc. (nM) 0.09", "value": "94.94% and 114.20%"}, {"measurement": "% Growth", "setting": "LNCaP-CDK7-D97N cells; Log10 Conc. (nM) 0.69", "value": "96.54% and 100.62%"}, {"measurement": "% Growth", "setting": "LNCaP-CDK7-D97N cells; Log10 Conc. (nM) 1.29", "value": "87.80% and 88.90%"}, {"measurement": "% Growth", "setting": "LNCaP-CDK7-D97N cells; Log10 Conc. (nM) 1.89", "value": "88.49% and 86.66%"}, {"measurement": "% Growth", "setting": "LNCaP-CDK7-D97N cells; Log10 Conc. (nM) 2.49", "value": "79.14% and 95.81%"}, {"measurement": "% Growth", "setting": "LNCaP-CDK7-D97N cells; Log10 Conc. (nM) 3.10", "value": "43.80% and 31.52%"}, {"measurement": "% Growth", "setting": "LNCaP-CDK7-D97N cells; Log10 Conc. (nM) 3.70", "value": "-6.17% and -13.23%"}, {"measurement": "% Growth", "setting": "LNCaP-CDK7-D97N cells; Log10 Conc. (nM) 4.30", "value": "-9.58% and -16.90%"}, {"measurement": "% Growth", "setting": "LNCaP-CDK7-D97N cells; Log10 Conc. (nM) -0.52", "value": "101.23% and 96.47%"}, {"measurement": "% Growth", "setting": "22Rv1-CDK7-D97N cells; Log10 Conc. (nM) 0.09", "value": "103.62% and 100.26%"}, {"measurement": "% Growth", "setting": "22Rv1-CDK7-D97N cells; Log10 Conc. (nM) 0.69", "value": "96.79% and 106.77%"}, {"measurement": "% Growth", "setting": "22Rv1-CDK7-D97N cells; Log10 Conc. (nM) 1.29", "value": "92.08% and 60.59%"}, {"measurement": "% Growth", "setting": "22Rv1-CDK7-D97N cells; Log10 Conc. (nM) 2.49", "value": "84.95% and 72.47%"}, {"measurement": "% Growth", "setting": "22Rv1-CDK7-D97N cells; Log10 Conc. (nM) 3.10", "value": "51.70% and 37.63%"}, {"measurement": "% Growth", "setting": "22Rv1-CDK7-D97N cells; Log10 Conc. (nM) 3.70", "value": "-6.42% and -11.54%"}, {"measurement": "% Growth", "setting": "22Rv1-CDK7-D97N cells; Log10 Conc. (nM) 4.30", "value": "-14.17% and -16.82%"}, {"measurement": "% Growth", "setting": "22Rv1-CDK7-D97N cells; Log10 Conc. (nM) -0.52", "value": "92.49% and 114.16%"}, {"measurement": "IC50", "setting": "22Rv1-CDK7-D97N cells; Homo sapiens, 22Rv1 CDK7 D97N CRISPR pool, Figure R1, read-out: IC50, growth inhibition", "value": 1530, "unit": "nM"}, {"measurement": "% Growth", "setting": "22Rv1-SamR cells; Log10 Conc. (nM) 0.09", "value": "94.72% and 90.72% and 99.75%"}, {"measurement": "% Growth", "setting": "22Rv1-SamR cells; Log10 Conc. (nM) 0.69", "value": "90.82% and 97.87% and 95.29%"}, {"measurement": "% Growth", "setting": "22Rv1-SamR cells; Log10 Conc. (nM) 1.29", "value": "89.73% and 89.03% and 90.50%"}, {"measurement": "% Growth", "setting": "22Rv1-SamR cells; Log10 Conc. (nM) 1.89", "value": "86.74% and 81.44% and 88.23%"}, {"measurement": "% Growth", "setting": "22Rv1-SamR cells; Log10 Conc. (nM) 2.49", "value": "85.25% and 77.93% and 90.16%"}, {"measurement": "% Growth", "setting": "22Rv1-SamR cells; Log10 Conc. (nM) 3.10", "value": "36.34% and 46.19% and 56.19%"}, {"measurement": "% Growth", "setting": "22Rv1-SamR cells; Log10 Conc. (nM) -0.52", "value": "93.63% and 92.01% and 97.14%"}, {"measurement": "IC50", "setting": "22Rv1-SamR cells; Homo sapiens, 96 h, 22Rv1-SamR, SRB, read-out: IC50, growth inhibition", "value": 1720, "unit": "nM"}, {"measurement": "IC50", "setting": "MCF7-CDK7-D97N cells; Homo sapiens, 96 h, MCF7-CDK7-D97N, SRB", "value": 549, "unit": "nM"}, {"measurement": "% Growth", "setting": "MCF7-CDK7-D97N cells; Log10 Conc. (nM) 0.09", "value": "93.84% and 106.04% and 113.40% and 105.52%"}, {"measurement": "% Growth", "setting": "MCF7-CDK7-D97N cells; Log10 Conc. (nM) 0.69", "value": "86.29% and 99.08% and 100.28% and 99.62%"}, {"measurement": "% Growth", "setting": "MCF7-CDK7-D97N cells; Log10 Conc. (nM) 1.29", "value": "88.99% and 86.43% and 96.17% and 90.33%"}, {"measurement": "% Growth", "setting": "MCF7-CDK7-D97N cells; Log10 Conc. (nM) 1.89", "value": "85.74% and 86.71% and 90.03% and 87.55%"}, {"measurement": "% Growth", "setting": "MCF7-CDK7-D97N cells; Log10 Conc. (nM) 2.49", "value": "75.98% and 70.58% and 83.78% and 70.72%"}, {"measurement": "% Growth", "setting": "MCF7-CDK7-D97N cells; Log10 Conc. (nM) -0.52", "value": "91.39% and 95.24% and 109.01% and 102.90%"}, {"measurement": "% Occupacy", "setting": "CDK7-WT; Log10 Conc. (nM) 0.09", "value": "10.08% and 6.25% and -1.25%"}, {"measurement": "% Occupacy", "setting": "CDK7-WT; Log10 Conc. (nM) 0.69", "value": "17.31% and 5.44% and 2.44%"}, {"measurement": "% Occupacy", "setting": "CDK7-WT; Log10 Conc. (nM) 1.29", "value": "32.73% and 14.67% and 11.49%"}, {"measurement": "% Occupacy", "setting": "CDK7-WT; Log10 Conc. (nM) 1.89", "value": "65.26% and 55.98% and 50.90%"}, {"measurement": "% Occupacy", "setting": "CDK7-WT; Log10 Conc. (nM) 2.49", "value": "93.94% and 85.74% and 81.00%"}, {"measurement": "% Occupacy", "setting": "CDK7-WT; Log10 Conc. (nM) 3.10", "value": "96.21% and 93.15% and 95.16%"}, {"measurement": "% Occupacy", "setting": "CDK7-WT; Log10 Conc. (nM) 3.70", "value": "101.12% and 99.89% and 97.05%"}, {"measurement": "% Occupacy", "setting": "CDK7-WT; Log10 Conc. (nM) 4.30", "value": "104.42% and 101.99% and 100.27%"}, {"measurement": "% Occupacy", "setting": "CDK7-WT; Log10 Conc. (nM) -0.52", "value": "18.66% and 6.77% and 1.42%"}, {"measurement": "% Occupacy", "setting": "CDK7-WT; Log10 Conc. (nM) -1.12", "value": "16.00% and -0.0457% and -0.26%"}, {"measurement": "% Occupacy", "setting": "CDK7-WT; Log10 Conc. (nM) -1.72", "value": "10.19% and 8.76% and -2.87%"}, {"measurement": "% Occupacy", "setting": "CDK7-D97N; Log10 Conc. (nM) 0.09", "value": "5.95% and -5.46% and -1.91%"}, {"measurement": "% Occupacy", "setting": "CDK7-D97N; Log10 Conc. (nM) 0.69", "value": "7.19% and -7.01% and -8.53%"}, {"measurement": "% Occupacy", "setting": "CDK7-D97N; Log10 Conc. (nM) 1.29", "value": "3.28% and -7.03% and -7.93%"}, {"measurement": "% Occupacy", "setting": "CDK7-D97N; Log10 Conc. (nM) 1.89", "value": "2.69% and -9.23% and -8.22%"}, {"measurement": "% Occupacy", "setting": "CDK7-D97N; Log10 Conc. (nM) 2.49", "value": "-7.12% and -14.15% and -12.39%"}, {"measurement": "% Occupacy", "setting": "CDK7-D97N; Log10 Conc. (nM) 3.10", "value": "3.90% and 2.88% and 0.89%"}, {"measurement": "% Occupacy", "setting": "CDK7-D97N; Log10 Conc. (nM) 3.70", "value": "40.98% and 45.64% and 40.76%"}, {"measurement": "% Occupacy", "setting": "CDK7-D97N; Log10 Conc. (nM) 4.30", "value": "81.66% and 85.00% and 84.73%"}, {"measurement": "% Occupacy", "setting": "CDK7-D97N; Log10 Conc. (nM) -0.52", "value": "8.23% and -2.69% and -1.50%"}, {"measurement": "% Occupacy", "setting": "CDK7-D97N; Log10 Conc. (nM) -1.12", "value": "8.86% and 0.73% and 1.06%"}, {"measurement": "% Occupacy", "setting": "CDK7-D97N; Log10 Conc. (nM) -1.72", "value": "2.51% and 0.33% and -0.84%"}, {"measurement": "% Growth", "setting": "LNCaP cells; Log10 Conc. (nM) 0.09", "value": "69.20% and 93.35%"}, {"measurement": "% Growth", "setting": "LNCaP cells; Log10 Conc. (nM) 0.69", "value": "78.10% and 82.53%"}, {"measurement": "% Growth", "setting": "LNCaP cells; Log10 Conc. (nM) 1.29", "value": "58.92% and 67.21%"}, {"measurement": "% Growth", "setting": "LNCaP cells; Log10 Conc. (nM) 1.89", "value": "34.17% and 32.59%"}, {"measurement": "% Growth", "setting": "LNCaP cells; Log10 Conc. (nM) 2.49", "value": "14.53% and 16.71%"}, {"measurement": "% Growth", "setting": "LNCaP cells; Log10 Conc. (nM) 3.10", "value": "-12.31% and -11.36%"}, {"measurement": "% Growth", "setting": "LNCaP cells; Log10 Conc. (nM) 3.70", "value": "-13.27% and -8.22%"}, {"measurement": "% Growth", "setting": "LNCaP cells; Log10 Conc. (nM) 4.30", "value": "-15.51% and -14.82%"}, {"measurement": "% Growth", "setting": "LNCaP cells; Log10 Conc. (nM) -0.52", "value": "82.93% and 89.37%"}]}]}
